Data from patent US11555200B2, “Regulation of cotton fiber growth by extracellular nucleotides and ectoapyrases” (priority 2008, dated 2023).
Entries after “also recorded” stand apart in the source; their conditions may differ.

Key:
cotton fibers = assay: In vitro cotton ovule culture, fiber growth (fiber length); type: cell-based, Gossypium hirsutum; settings: for block of promotion of fiber growth by 30 μM ATPγS and ADPβS: co-applied with 30 μM nucleotide, 7 dpa; for reversal of the effects of high concentrations of ATPγS and ADPβS on fiber growth: co-applied with 150 μM ATPγS or ADPβS; for block of both the inhibition and stimulation of fiber growth by ATPγS and ADPβS: summary statement; for increase in average fiber length: by 7 dpa
Experimental: In Vitro Ovule Culture. Cotton bolls were harvested within 24 hours of flower opening, 1-DPA, and all petals bracts, and sepals were removed. All collected cotton bolls were used within 24 hours of original harvest. If the bolls were not used immediately they were stored in a 4° C. refrigerator until ready for use. For sterilization, bolls were dropped into an 85% ethanol solution for at least 30 seconds but not more than two minutes and then removed with forceps. The excess ethanol was shaken off and the boll was passed through a flame until the residual ethanol was burned off. Ovules were then excised and placed in 10 mL of BT Cotton Media cell culture (Caisson Laboratories, Inc., North Logan, Utah, USA)+5.0 μM IAA and 0.5 μM GA3 (Sigma, St. Louis, Mo., USA) hormone solution, final concentration, in 60×15 mm Petri dishes and were then wrapped in Milli Wrap (Millipore Corporation, Bedford, Mass.). Twelve to 16 cotton ovules were placed into their respective Petri dishes and incubated with nucleotides, inhibitors, antibody serum or a combination of these at specified concentrations and were cultured at 32° C. in the dark without agitation. To facilitate combing of the cultured ovules, ovules were placed in a 75% ethanol solution for 15 minutes and then taken out to be combed. Fiber lengths were measured manually with a dissecting microscope after laying the ovule on its side and combing the fiber cells away from the ovule with forceps and dissecting probe.
In Vitro Cotton Ovule Culture Treatments. For studies testing the effects of apyrase inhibitors on cotton fiber growth, the inhibitors (NGXT191 and AI #4, both at 2.5 mg/mL), were dissolved in dimethyl sulfoxide and then applied to Cotton Media cell culture at 3 and 5 DPA after the introduction of cotton ovules to the media. For experiments testing the effects of apyrase antibodies on cotton fiber growth, apyrase antibodies were applied to Cotton Media cell culture at 3 and 5 DPA after the introduction of cotton ovules in the appropriate amounts. For experiments testing the effects of applying nucleotides during cotton fiber growth, various concentrations of ATPγS, ADPβS, and AMP (Sigma-Aldrich, Inc., St. Louis, Mo., USA) were added to Cotton Media cell culture at 5 DPA after the introduction of cotton ovules in the appropriate amounts. All nucleotides were made into 50 mM stocks dissolved in de-ionized water and kept at −20° C. while not in use. The inhibitor stocks were stored at ˜20° C. while not in use. For experiments testing the effects of P2-receptor antagonists, the antagonists (PPADS and Adenosine, stocks at 50 mM) were dissolved in de-ionized water and then applied to Cotton Media cell culture at 3 and 5 DPA for inhibitor and antibody experiments and 5 DPA for applied nucleotide experiments. The antagonists stocks were stored at ˜20° C. while not in use (Sigma-Aldrich, Inc., St. Louis, Mo., USA). The ethylene inhibitor (S)-trans-2-Amino-4-(2-aminoethoxy)-3-butenoic acid hydrochloride (Sigma-Aldrich, Inc., St. Louis, Mo., USA) (AVG, stock at 50 mM) was dissolved in de-ionized water and then applied to Cotton Media cell culture at 5 DPA. The production of the Arabidopsis anti-APY1 and APY2 antibodies used is described by Steinebrunner et al. (2003). The crude immune and pre-immune sera were purified using protein A-sepharose following the protocol described by Martin et al. (1982) with the slight modification that the buffers used were azide-free. Bio-rad assay was used to determine that the concentration of the immune serum and pre-immune serum which was 0.46 μg/mL and 0.3 μg/mL, respectively.

apyrase activity = assay: ATP level in the medium outside growing cotton fibers in ovule culture; type: cell-based, Gossypium hirsutum; settings: highest concentration of inhibitor, versus control level of 330 nM
Description: Apyrase inhibitors and anti-apyrase antibodies inhibit fiber elongation. In order to test whether apyrase activity is important during cotton fiber growth we applied varying concentrations of two different chemical apyrase inhibitors, apyrase inhibitor 4 and NGXT191, to cotton ovule cultures at 3 dpa and 5 dpa. […] There is clearly a dose-dependent effect, and the effects at each dosage are statistically significant. […] The level of inhibition increased with increasing concentrations of both inhibitors. Next when PPADS, an inhibitor of animal purinoceptors, was tested, it could block the 40% inhibition of fiber growth caused by application of the highest concentration of apyrase inhibitors. […] Application of the highest concentration of inhibitors NGXT191 and 4 caused a 2.1-fold and 3.2-fold increase in ATP levels, respectively.
In Vitro Ovule Culture. Cotton bolls were harvested within 24 hours of flower opening, 1-DPA, and all petals bracts, and sepals were removed. All collected cotton bolls were used within 24 hours of original harvest. If the bolls were not used immediately they were stored in a 4° C. refrigerator until ready for use. […] Fiber lengths were measured manually with a dissecting microscope after laying the ovule on its side and combing the fiber cells away from the ovule with forceps and dissecting probe. […]

Row | SMILES | block of promotion of fiber growth by 30 μM ATPγS and ADPβS (cotton fibers) | reversal of the effects of high concentrations of ATPγS and ADPβS on fiber growth (cotton fibers) | block of both the inhibition and stimulation of fiber growth by ATPγS and ADPβS (cotton fibers) | increase in average fiber length (cotton fibers; 30 μM) [%] | effect on fiber growth (cotton fibers; 150 μM, at 7 dpa) | further results
1 | Nc1ncnc2c1ncn2[C@@H]1O[C@H](CO)[C@@H](O)[C@H]1O [adenosine] | blocked | reversed | blocked |  |  | 
2 | Cc1cccc(NS(=O)(=O)c2ccc(-c3ccccc3)cc2)c1 [NGXT191] |  |  |  |  |  | inhibition of fiber growth (cotton fibers; all three concentrations, applied at 3 dpa and 5 dpa, fibers measured at 7 dpa): statistically significant inhibition of fiber growth; increase in ATP levels outside of the growing fibers (apyrase activity): 2.1 fold
3 | Cc1nc(N=Nc2ccc(S(=O)(=O)O)cc2S(=O)(=O)O)c(COP(=O)(O)O)c(C=O)c1O [PPADS] | blocked | reversed | blocked |  |  | reversal of fiber growth inhibition caused by apyrase inhibitors (cotton fibers; 250 μM PPADS in the media with highest concentration of apyrase inhibitors): returned to control levels
4 | Nc1ncnc2c1ncn2[C@@H]1O[C@H](COP(=O)(O)OP(O)(O)=S)[C@@H](O)[C@H]1O [ADPβS] |  |  |  | 44 | inhibit growth | 
5 | Nc1ncnc2c1ncn2[C@@H]1O[C@H](COP(O)(O)=S)[C@@H](O)[C@H]1O [AMPS] |  |  |  |  |  | effect on fiber growth (cotton fibers; 200 μM, at 7 dpa): no effect on growth; effect on fiber growth (cotton fibers; concentration not given): no change in the growth rate; also recorded: no effect on fiber growth
6 | Nc1ncnc2c1ncn2[C@@H]1O[C@H](COP(=O)(O)OP(=O)(O)OP(O)(O)=S)[C@@H](O)[C@H]1O [ATPγS] |  |  |  | 46 | inhibit growth | promotion of cotton fiber growth (cotton fibers; 30 μM, at 5 dpa (data not shown)): statistically significant levels of promotion of cotton fiber growth; growth rate of fibers (cotton fibers; 30 μM, between 5 dpa and 7 dpa (data not shown)): statistically significant increase in the growth rate; inhibition of cotton fiber growth (cotton fibers; 150 μM, at 5 dpa): Statistically significant levels of inhibition of cotton fiber growth
